Measurements reported in patent publication US20090023186A1, “USE OF VALPROIC ACID FOR ENHANCING PRODUCTION OF RECOMBINANT PROTEINS IN MAMMALIAN CELLS” (EXCELLGENE SA, priority 2007, published 2009).

Key:
CHO DG44 cells [1] = assay: Combination with IDMTs, IgG batch yield by ELISA (Example 6); type: cell-based, Chinese Hamster; settings: day 5; for interaction with VPA in increasing batch yield: CHO cells; for Fold increase in batch yield over control: no addition = 100%
Protocol: 10 million suspension-adapted HEK293E cells were resuspended in 0.5 ml of Ex-Cell 293 HEK 293 serum-free medium with 4 mmol/l L-glutamine (Cat. No. 14571C-[…]; Lot No. 6A0093; SAFC Biosciences, Lenexa, Kans., USA, “Ex-Cell” medium; note: “Ex-Cell” medium-as used herein-refers to a medium comprising 4 mmol/l L-glutamine) in a 50-ml filter tube each (TPP AG, Trasadingen, Switzerland; Cat. No. 87050, Lot 20050174). In a separate set, 10 million suspension-adapted CHO DG44 cells were resuspended in 0.5 ml of ProCHO5 serum-free medium with 4 mmol/[…] hypoxanthine and 0.194 g/l thymidine (BioWhittaker (Lonza), Belgium; Cat. No. BE12-[…]; Lot No. 7MB0040; “ProCHO5” medium; note: “ProCHO5” medium-as used herein-refers to a medium comprising 4 mmol/[…] hypoxanthine and 0.194 g/l thymidine) in a 50-ml filter tube each (TPP AG, Trasadingen, Switzerland; Cat. No. 87050, Lot 20050174). Then 12.5 μg plasmid DNA at a concentration of 1 μg/μl was added in each tube with the following composition 50% (6.25 μg) p-LC (SEQ ID NO: 1) 50% (6.25 μg) p-HC (SEQ ID NO: 3). Plasmid p-LC comprises the genetic information for the production of the light chain of an IgG antibody, plasmid p-HC comprises the genetic information for the production of the heavy chain of an IgG antibody. The particular vector constructs used in the present invention can also be obtained from the inventors. The inventors can be contacted via e-mail at […]. Moreover, commercial services do exist that produce any desired nucleotide sequence even comprising several kilobase pairs including complete expression cassettes in plasmid backgrounds (e.g., Invitrogen, Carlsbad, USA; Geneart, Germany.) Thus, providing the genetic sequence information of the plasmids should enable one of ordinary skill in the art to order the plasmids of the present invention at one of the commercial services listed. After shortly mixing the DNA with the cells by gentle shaking, 25 μg of 25-kd linear polyethyleneimine (“PEI”; Polysciences, Eppelheim, Germany; [2]) were added at a concentration of 1 μg/μl to each of the tubes. After shortly mixing by gentle shaking, the filter tubes containing the cells together with the DNA and PEI were transferred into an orbital shaker (Kühner Shaker Cabinet ISF-4-W, “Kühner shaker”, Kühner AG, Birsfelden, Switzerland), and the cells were incubated for 4 hours at 37° C. in a 5% CO2 atmosphere under shaking at 180 rpm. After that time, 4.5 ml of Ex-Cell medium were added to each of the filter tubes containing HEK 293 cells and 4.5 ml of Pro-CHO5 were added to each of the filter tubes containing CHO DG44 cells. Then, valproic acid was added to each of the tubes at the corresponding final concentration. In addition, the following chemicals were added to the corresponding tubes at a final concentration of: […] Azacytidine was purchased from Sigma-Aldrich Chemie GmbH, Industriestrasse 25, CH-9471 Buchs SG, Catalog Number A1287-1 VL. RG108 was purchased from Sigma-Aldrich Chemie GmbH, Industriestrasse 25, CH-9471 Buchs SG, Catalog Number R8279-10MG. The cells then were returned into the Kuhner shaker and incubated at 37° C. in a 5% CO2 atmosphere under shaking at 180 rpm. […] In short, Goat anti-human kappa light chain IgG (Biosource) was used for coating the ELISA-plates, and with AP-conjugated goat anti-human gamma chain IgG (Biosource) the synthesized IgG1 was detected. […] Absorption was measured at 405 nm against 490 nm using a microplate reader (SPECTRAmaxTM340; Molecular Devices, Palo Alto, Calif., USA).

HEK293E cells [2] = assay: as above; type: cell-based, Human; settings: no addition = 100%, day 5
Protocol: 10 million suspension-adapted HEK293E cells were resuspended in 0.5 ml of Ex-Cell 293 HEK 293 serum-free medium with 4 mmol/l L-glutamine (Cat. No. 14571C-[…]; Lot No. 6A0093; SAFC Biosciences, Lenexa, Kans., USA, “Ex-Cell” medium; note: “Ex-Cell” medium-as used herein-refers to a medium comprising 4 mmol/l L-glutamine) in a 50-ml filter tube each (TPP AG, Trasadingen, Switzerland; Cat. No. 87050, Lot 20050174). In a separate set, 10 million suspension-adapted CHO DG44 cells were resuspended in 0.5 ml of ProCHO5 serum-free medium with 4 mmol/[…] hypoxanthine and 0.194 g/l thymidine (BioWhittaker (Lonza), Belgium; Cat. No. BE12-[…]; Lot No. 7MB0040; “ProCHO5” medium; note: “ProCHO5” medium-as used herein-refers to a medium comprising 4 mmol/[…] hypoxanthine and 0.194 g/l thymidine) in a 50-ml filter tube each (TPP AG, Trasadingen, Switzerland; Cat. No. 87050, Lot 20050174). Then 12.5 μg plasmid DNA at a concentration of 1 μg/μl was added in each tube with the following composition 50% (6.25 μg) p-LC (SEQ ID NO: 1) 50% (6.25 μg) p-HC (SEQ ID NO: 3). Plasmid p-LC comprises the genetic information for the production of the light chain of an IgG antibody, plasmid p-HC comprises the genetic information for the production of the heavy chain of an IgG antibody. The particular vector constructs used in the present invention can also be obtained from the inventors. The inventors can be contacted via e-mail at […]. […] In short, Goat anti-human kappa light chain IgG (Biosource) was used for coating the ELISA-plates, and with AP-conjugated goat anti-human gamma chain IgG (Biosource) the synthesized IgG1 was detected. […] Absorption was measured at 405 nm against 490 nm using a microplate reader (SPECTRAmaxTM340; Molecular Devices, Palo Alto, Calif., USA).

HEK293E cells [3] = assay: Influence of temperature on IgG batch titer and comparison with sodium butyrate (Example 2); type: cell-based, Human; settings: 3 mmol/l sodium butyrate; relative to control = 1; day 5 after transfection
Protocol: (§1) No. 14571C-[…]; Lot No. 6A0093; SAFC Biosciences, Lenexa, Kans., USA, “Ex-Cell” medium; note: “Ex-Cell” medium-as used herein-refers to a medium comprising 4 mmol/l L-glutamine) in a 50-ml filter tube each (TPP AG, Trasadingen, Switzerland; Cat. No. 87050, Lot 20050174). In a separate set, 10 million suspension-adapted CHO DG44 cells were resuspended in 0.5 ml of ProCHO5 serum-free medium with 4 mmol/[…] hypoxanthine and 0.194 g/l thymidine (BioWhittaker (Lonza), Belgium; Cat. No. BE12-[…]; Lot No. 7 MB0040; “ProCHO5” medium; note: “ProCHO5” medium-as used herein-refers to a medium comprising 4 mmol/[…] hypoxanthine and 0.194 g/l thymidine) in a 50-ml filter tube each (TPP AG, Trasadingen, Switzerland; Cat. No. 87050, Lot 20050174). Then 12.5 μg plasmid DNA at a concentration of 1 μg/μl was added in each tube with the following composition 50% (6.25 μg) p-LC (SEQ ID NO: 1) 50% (6.25 μg) p-HC (SEQ ID NO: 3). Plasmid p-LC comprises the genetic information for the production of the light chain of an IgG antibody, plasmid p-HC comprises the genetic information for the production of the heavy chain of an IgG antibody. The particular vector constructs used in the present invention can also be obtained from the inventors. The inventors can be contacted via e-mail at […]. Moreover, commercial services do exist that produce any desired nucleotide sequence even comprising several kilobase pairs including complete expression cassettes in plasmid backgrounds (e.g., Invitrogen, Carlsbad, USA; Geneart, Germany.) Thus, providing the genetic sequence information of the plasmids should enable one of ordinary skill in the art to order the plasmids of the present invention at one of the commercial services listed. After shortly mixing the DNA with the cells by gentle shaking, 25 μg of 25-kd linear polyethyleneimine (“PEI”; Polysciences, Eppelheim, Germany; [2]) were added at a concentration of 1 μg/μl to each of the tubes. After shortly mixing by gentle shaking, the filter tubes containing the cells together with the DNA and PEI were transferred into an orbital shaker (Kühner Shaker Cabinet ISF-4-W, “Kühner shaker”, Kühner AG, Birsfelden, Switzerland), and the cells were incubated for 4 hours at 37° C. in a 5% CO2 atmosphere under shaking at 180 rpm. After that time, 4.5 ml of Ex-Cell medium were added to each of the filter tubes containing HEK 293 cells and 4.5 ml of Pro-CHO5 were added to each of the filter tubes containing CHO DG44 cells. […] No. […] Sigma-Aldrich Chemie GmbH, Industriestrasse 25, CH-9471 Buchs SG) was added to the corresponding tubes at the corresponding final concentrations. The cells then were returned into the Kühner shaker. Half the tubes were incubated at 37° C. in a 5% CO2 atmosphere under shaking at 180 rpm, the other half was incubated at 31° C. […] The ELISA was performed as published in prior art. In short, Goat anti-human kappa light chain IgG (Biosource) was used for coating the ELISA-plates, and with AP-conjugated goat anti-human gamma chain IgG (Biosource) the synthesized IgG1 was detected. NPP was used as a substrate for the alkaline phosphatase. Absorption was measured at 405 nm against 490 nm using a microplate reader (SPECTRAmaxTM340; Molecular Devices, Palo Alto, Calif., USA).

HEK293E cells [4] = assay: Preferred embodiment: transient IgG expression with p18 and p21 co-transfection, batch titer by ELISA; type: cell-based, Human
Protocol: 20 million suspension-adapted HEK293E cells were resuspended in 1 ml of Ex-Cell 293 HEK 293 serum-free medium with 4 mmol/l L-glutamine (Cat. No. 14571C-[…]; Lot No. 6A0093; SAFC Biosciences, Lenexa, Kans., USA, “Ex-Cell” medium; note: “Ex-Cell” medium-as used herein-refers to a medium comprising 4 mmol/l L-glutamine) in a 50-ml filter tube each (TPP AG, Trasadingen, Switzerland; Cat. No. 87050, Lot 20050174). Then 50 μg plasmid DNA at a concentration of 1 μg/μl was added in each tube with the following composition […] Plasmid p-LC comprises the genetic information for the production of the light chain of an IgG antibody, plasmid p-HC comprises the genetic information for the production of the heavy chain of an IgG antibody, plasmid p-p18 comprises the genetic information for the protein p18, and plasmid p-p21 comprises the genetic information for the protein p21. The particular vector constructs used in the present invention can also be obtained from the inventors. The inventors can be contacted via e-mail at […]. Moreover, commercial services do exist that produce any desired nucleotide sequence even comprising several kilobase pairs including complete expression cassettes in plasmid backgrounds (e.g., Invitrogen, Carlsbad, USA; Geneart, Germany.) Thus, providing the genetic sequence information of the plasmids should enable one of ordinary skill in the art to order the plasmids of the present invention at one of the commercial services listed. After shortly mixing the DNA with the cells by gentle shaking, 100 μg of 25-kd linear polyethyleneimine (“PEI”; Polysciences, Eppelheim, Germany; [2]) were added at a concentration of 1 μg/μl to each of the tubes. After shortly mixing by gentle shaking, the filter tubes containing the cells together with the DNA and PEI were transferred into an orbital shaker (Kühner Shaker Cabinet ISF-4-W, “Kühner shaker”, Kühner AG, Birsfelden, Switzerland), and the cells were incubated for 3 hours at 37° C. in a 5% CO2 atmosphere under shaking at 180 rpm. After that time, 4 ml of Ex-Cell medium were added to each of the filter tubes. […] No. B5887-1G; Sigma-Aldrich Chemie GmbH, Industriestrasse 25, CH-9471 Buchs SG) was added to the corresponding tubes at the corresponding final concentrations. […] The ELISA was performed as published in prior art. In short, Goat anti-human kappa light chain IgG (Biosource) was used for coating the ELISA-plates, and with AP-conjugated goat anti-human gamma chain IgG (Biosource) the synthesized IgG1 was detected. NPP was used as a substrate for the alkaline phosphatase. Absorption was measured at 405 nm against 490 nm using a microplate reader (SPECTRAmaxTM340; Molecular Devices, Palo Alto, Calif., USA).

CHO DG44 cells [5] = assay: Influence of temperature on IgG batch titer and comparison with sodium butyrate (Example 2); type: cell-based, Chinese Hamster; settings: 3 mmol/l sodium butyrate; relative to control = 1; day 5 after transfection
Protocol: as §1

O=C(O)C(Cc1c[nH]c2ccccc12)N1C(=O)c2ccccc2C1=O (stereo not shown) [RG108]
interaction with VPA in increasing batch yield (CHO DG44 cells [1]): act synergistically together with VPA | Fold increase in batch yield over control (CHO DG44 cells [1]; RG108 60 μmol/l): 170% ± 15% | Fold increase in batch yield over control (HEK293E cells [2]; RG108 8 μmol/l): 150% ± 20%

Nc1ncn([C@@H]2O[C@H](CO)[C@@H](O)[C@H]2O)c(=O)n1 [Azacytidine]
Fold increase in batch yield over control (CHO DG44 cells [1]; Azacytidine 4 μmol/l): 160% ± 10% | interaction with VPA in increasing batch yield (CHO DG44 cells [1]): act synergistically together with VPA | Fold increase in batch yield over control (HEK293E cells [2]; Azacytidine 6 μmol/l): 160% ± 15%

CCCC(=O)[O-].[Na+] [sodium butyrate]
Batch titer increase at 31° C. (HEK293E cells [3]): 4.8 ± 0.4 | Batch titer increase at 37° C. (HEK293E cells [3]): 4.8 ± 0.4 | Batch titer (HEK293E cells [4]; 3 mmol/l sodium butyrate, IgG with p18 and p21, day 14 after transfection): 528 ± 42 mg/L | Fold increase over control (HEK293E cells [4]; 3 mmol/l sodium butyrate, day 14 after transfection): 7.2 fold | optimal concentration (HEK293E cells [4]; in combination with HEK293E cells): 3 mmol/L | Batch titer increase at 31° C. (CHO DG44 cells [5]): 1.3 ± 0.1 | Batch titer increase at 37° C. (CHO DG44 cells [5]): 1.9 ± 0.1
